In US11530198B2, “Compositions and methods for treating infections” (priority 2016, dated 2022):
Like-named read-outs stand apart in the source and are kept apart here. Blank lines part the entries; values can stand above or below the compound they belong to.

Legend:
L. major DHFR (1mDHFR) = L. major DHFR (1mDHFR) (Leishmania major, UniProt P07382); type: biochemical; conditions: for Average DHFR selectivity (h/lm)*-DHFR IC50: hDHFR IC50/L. major DHFR IC50
T. gondii DHFR (tgDHFR) = T. gondii DHFR (tgDHFR) (Toxoplasma gondii, UniProt Q07422); conditions: for Average DHFR selectivity (h/tg): hDHFR IC50/tgDHFR IC50
[1] = target: P. falciparum DHFR (pfDHFR) (Plasmodium falciparum (isolate K1 / Thailand), UniProt P13922); assay: DHFR inhibition assay (diaphorase/resazurin coupled), P. falciparum DHFR; type: biochemical; conditions: for pfDHFR pIC50-DHFR primary assay: Table 15, P. falciparum DHFR
hDHFR = hDHFR (Homo sapiens (Human), UniProt P00374); assay: DHFR inhibition assay (diaphorase/resazurin coupled, fluorescence of resorufin), human DHFR; type: biochemical
T. cruzi DHFR (tcDHFR) = T. cruzi DHFR (tcDHFR) (Trypanosoma cruzi, UniProt Q27793); assay: DHFR inhibition assay (diaphorase/resazurin coupled), T. cruzi DHFR; type: biochemical; conditions: Table 12; T. cruzi DHFR
T. brucei DHFR (tbDHFR) = T. brucei DHFR (tbDHFR) (Trypanosoma brucei brucei, UniProt Q27783); assay: DHFR inhibition assay (diaphorase/resazurin coupled), T. brucei DHFR; type: biochemical; conditions: Table 13; T. brucei DHFR

Chain of hDHFR (P00374 whole entry): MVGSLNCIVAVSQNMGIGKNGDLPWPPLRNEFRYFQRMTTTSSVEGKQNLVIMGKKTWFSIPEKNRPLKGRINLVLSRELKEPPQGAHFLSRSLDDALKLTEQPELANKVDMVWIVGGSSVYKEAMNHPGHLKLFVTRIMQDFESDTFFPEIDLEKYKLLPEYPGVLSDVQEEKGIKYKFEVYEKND

Structure (SMILES): Nc1ncc(N2CCN(c3ccc(-c4ccccc4)cc3)CC2)c(N)n1 [Compound 12, 5-(4-([1,1′-biphenyl]-4-yl)piperazin-1-yl)pyrimidine-2,4-diamine]
Average DHFR selectivity (h/lm)*-DHFR IC50 (L. major DHFR (1mDHFR)): 29

Structure (SMILES): CCCc1nc(N)nc(N)c1N1CCN(c2ccccc2)CC1 [Compound 49, 5-(4-phenylpiperazin-1-yl)-6-propylpyrimidine-2,4-diamine]
Average DHFR selectivity (h/tg) (T. gondii DHFR (tgDHFR)): 501.19
pfDHFR pIC50-DHFR primary assay [1]: 7.85
Average DHFR selectivity (h/pf)*-DHFR IC50 ([1]; hDHFR IC50/pfDHFR IC50): 806

Structure (SMILES): Nc1ncc(N2CCN(c3ccccc3)CC2)c(N)n1 [Compound 4, 5-(4-phenylpiperazin-1-yl)pyrimidine-2,4-diamine]
hDHFR pIC50-DHFR primary assay (hDHFR; Table 11): 4.90
hDHFR pIC50-DHFR primary assay (hDHFR; Table 12): 4.90
hDHFR pIC50-DHFR primary assay (hDHFR; Table 13): 4.90
hDHFR pIC50-DHFR primary assay (hDHFR; Table 14): 4.90
hDHFR pIC50-DHFR primary assay (hDHFR; Table 15): 4.90
tgDHFR pIC50-DHFR primary assay (T. gondii DHFR (tgDHFR)): 6.68
tcDHFR pIC50-DHFR primary assay (T. cruzi DHFR (tcDHFR)): 7.04
pfDHFR pIC50-DHFR primary assay [1]: 8.72
mDHFR pIC50-DHFR primary assay (L. major DHFR (1mDHFR); Table 14, L. major DHFR): 6.30
tbDHFR pIC50-DHFR primary assay (T. brucei DHFR (tbDHFR)): 7.50

Structure (SMILES): COc1ncc(-c2cccc(N3CCN(c4cnc(N)nc4N)CC3)c2)cn1 [Compound 78, 5-(4-(3-(2-methoxypyrimidin-5-yl)phenyl)piperazin-1-yl)pyrimidine-2,4-diamine]
hDHFR pIC50-DHFR primary assay (hDHFR; Table 11): 5.92
hDHFR pIC50-DHFR primary assay (hDHFR; Table 13): 6.05
hDHFR pIC50-DHFR primary assay (hDHFR; Table 15): 6.04
tgDHFR pIC50-DHFR primary assay (T. gondii DHFR (tgDHFR); Table 11, T. gondii DHFR): 8.49
pfDHFR pIC50-DHFR primary assay [1]: 9.15
tbDHFR pIC50-DHFR primary assay (T. brucei DHFR (tbDHFR)): 8.68

Structure (SMILES): CN(Cc1cnc2nc(N)nc(N)c2n1)c1ccc(C(=O)N[C@@H](CCC(=O)O)C(=O)O)cc1 [Methotrexate]
tcDHFR pIC50-DHFR primary assay (T. cruzi DHFR (tcDHFR)): 8.96

Second part, led by results:

Average DHFR selectivity (h/lm)*-DHFR IC50 (L. major DHFR (1mDHFR)): 27
Structure (SMILES): Nc1ncc(N2CCN(c3cccc(-c4ccnc(F)c4)c3)CC2)c(N)n1 [Compound 90, 5-(4-(3-(2-fluoropyridin-4-yl)phenyl)piperazin-1-yl)pyrimidine-2,4-diamine]

Average DHFR selectivity (h/lm)*-DHFR IC50 (L. major DHFR (1mDHFR)): 30
Structure (SMILES): Nc1ncc(N2CCN(c3cccc(-c4cccnn4)c3)CC2)c(N)n1 [Compound 107]

Average DHFR selectivity (h/lm)*-DHFR IC50 (L. major DHFR (1mDHFR)): 35
Structure (SMILES): Nc1ncc(N2CCN(c3cnc4ccccc4c3)CC2)c(N)n1 [Compound 19, 5-(4-(quinolin-3-yl)piperazin-1-yl)pyrimidine-2,4-diamine]

Average DHFR selectivity (h/lm)*-DHFR IC50 (L. major DHFR (1mDHFR)): 48
Structure (SMILES): Nc1ncc(N2CCN(c3cccc(-c4cnc(N5CCC5)nc4)c3)CC2)c(N)n1 [Compound 98, 5-(4-(3-(2-(azetidin-1-yl)pyrimidin-5-yl)phenyl)piperazin-1-yl)pyrimidine-2,4-diamine]
Average DHFR selectivity (h/tg) (T. gondii DHFR (tgDHFR)): 130.84
